Assay results: patent EP0084597A1, “Triazole and imidazole derivatives and pharmaceutical preparations containing them” (BAYER AG, priority 1981, dated 1983)
≈ marks a conversion by molar mass, not a printed value.

Assays:
Aspergillus fumig. = experiment: Antimycotic in-vitro activity, serial dilution test (MIC); format: cell-based, Aspergillus fumigatus; conditions: Sabouraud medium, 20°C, inoculum 5 x 10^4 germs/ml; for MIC: Aspergillus, 96 h, read-out: MHK-Werte in γ/ml Nährmedium, Aspergillus fumig.
Experimental: (§1) Die in-vitro-Prüfungen wurden im Reihenverdünnungstest mit Keiminokula von durchschnittlich 5 x 10^4 Keimen/ml Substrat durchgeführt. Als Nährmedium dienten • a) für Dermatophyten und Schimmelpilze: Sabourand's milieu d'epreuve • b) für Hefen: Fleischextrakt-Traubenzucker-Bouillon.
(§2) Die Bebrütungstemperatur betrug 20°C, die Bebrütungsdauer lag bei 24 bis 96 Stunden bei Hefen und 96 Stunden bei Dermatophyten und Schimmelpilzen.

Candida-Zellen = experiment: Antimycotic in-vivo activity (oral) in mouse candidosis; set-up: species or system Mäuse vom Typ SPF-CF1; key: +++++: sehr gute Wirkung = 90 % Ueberlebende am 6.Tag p.i.; ++++: gute Wirkung = 80 % Ueberlebende am 6.Tag p.i.; +++: Wirkung = 60 % Ueberlebende am 6.Tag p.i.; ++: schwache Wirkung = 40 % Ueberlebende am 6.Tag p.i.; +: Spur Wirkung; k.W.: keine Wirkung
Experimental: Mäuse vom Typ SPF-CF1 wurden intravenös mit 1 - 2 x 10^6 logarithmisch wachsenden Candida-Zellen, die in physiologischer Kochsalzlösung suspendiert werden, infiziert. Eine Stunde vor und sieben Stunden nach der Infektion werden die Tiere mit jeweils 50 - 100 mg/kg Körpergewicht der Präparate oral behandelt.
Uhbehandelte Tiere starben 3 bis 6 Tage post infektionem. Die Ueberlebensrate am 6.Tag post infektionem betrug bei uhbehandelten Kontrolltieren etwa 5 %.
• +++++ = sehr gute Wirkung = 90 % Ueberlebende am 6.Tag p.i. • ++++ = gute Wirkung = 80 % Ueberlebende am 6.Tag p.i. • +++ = Wirkung = 60 % Ueberlebende am 6.Tag p.i. • ++ = schwache Wirkung = 40 % Ueberlebende am 6.Tag p.i. • + = Spur Wirkung = k.W. = keine Wirkung

Candida albicans = experiment: Antimycotic in-vitro activity, serial dilution test (MIC); format: cell-based; conditions: meat extract-glucose broth, 20°C, 24 to 96 hours, inoculum 5 x 10^4 germs/ml; for MIC: Candida albicans, read-out: MHK-Werte in γ/ml Nährmedium, Candida albicans
Experimental: as §1, §2

Microsporum canis = experiment: as above; format: cell-based; conditions: Sabouraud medium, 20°C, inoculum 5 x 10^4 germs/ml; for MIC: Microsporum canis, 96 h, read-out: MHK-Werte in γ/ml Nährmedium, Microsporum canis; for MHK-Werte in γ/ml Nährmedium, Microsporum canis: 96 hours
Experimental: as §1, §2

Trichophyton mentagr. = experiment: as above; format: cell-based, Trichophyton mentagrophytes; conditions: Sabouraud medium, 20°C, 96 hours, inoculum 5 x 10^4 germs/ml; for MIC: Trichophyton, read-out: MHK-Werte in γ/ml Nährmedium, Trichophyton mentagr.
Experimental: as §1, §2

[1] = system: Dermatophyten und Schimmelpilze, Hefen; experiment: Antimycotic in-vitro activity, serial dilution test, overall comparison with known compounds; format: cell-based; conditions: compared with known compounds (A),(B),(C) and (D)
Experimental: as §1, §2

Torulopsis glabrata = experiment: Antimycotic in-vitro activity, serial dilution test (MIC); format: cell-based; conditions: meat extract-glucose broth, 20°C, 24 to 96 hours, inoculum 5 x 10^4 germs/ml; for MIC: Nakaseomyces glabratus, read-out: MHK-Werte in γ/ml Nährmedium, Torulopsis glabrata
Experimental: as §1, §2

[2] = mice infected i.v. with 1 - 2 x 10^6 Candida cells, oral 50 - 100 mg/kg one hour before and seven hours after infection, survivors on day 6 p.i.
[3] = mouse candidosis, oral, compared with known compounds (A), (B), (C) and (D)

Row | MIC (Aspergillus fumig.) [µg/mL] | MIC (Candida albicans) [µg/mL] | MIC (Microsporum canis) [µg/mL] | MIC (Trichophyton mentagr.) [µg/mL] | MIC (Torulopsis glabrata) [µg/mL] | SMILES | Wirkung (Candida-Zellen; [2]) | antimykotische Wirkung [1] | Wirkung (Candida-Zellen; [3]) | MHK-Werte in γ/ml Nährmedium, Aspergillus fumig. (Aspergillus fumig.; 96 hours) [µg/mL] | MHK-Werte in γ/ml Nährmedium, Candida albicans (Candida albicans) [µg/mL] | MHK-Werte in γ/ml Nährmedium, Torulopsis glabrata (Torulopsis glabrata) [µg/mL] | MHK-Werte in γ/ml Nährmedium, Microsporum canis (Microsporum canis) [µg/mL] | MHK-Werte in γ/ml Nährmedium, Trichophyton mentagr. (Trichophyton mentagr.) [µg/mL]
1 | > 64 | > 64 | > 64 | 4 (≈ 13.3 µM) |  | OC(Cn1cncn1)c1ccc(-c2ccc(Cl)cc2)cc1 (centres unmarked) [(D), reference compound] | k.W. |  |  |  |  |  |  | 
2 |  | > 64 |  | > 64 |  | CC(C(=O)c1ccccc1)n1cncn1 (centres unmarked) [(A), reference compound] | k.W. |  |  |  |  |  |  | 
3 | 16 (≈ 49 µM) | 4 (≈ 12.2 µM) |  | 8 (≈ 24.5 µM) | 16 (≈ 49 µM) | CC(C(=O)c1ccc(Oc2ccc(Cl)cc2)cc1)n1ccnc1 (centres unmarked) [Beispiel 26] | + | bessere antimykotische Wirkung | bessere Wirkung |  |  |  |  | 
4 | 64 (≈ 179 µM) | 4 (≈ 11.2 µM) | 16 (≈ 44.8 µM) | 4 (≈ 11.2 µM) | 2 (≈ 5.6 µM) | CC(C)C(C(O)c1ccc(Oc2ccc(Cl)cc2)cc1)n1ccnc1 (centres unmarked) [Beispiel 73] |  | bessere antimykotische Wirkung |  |  |  |  |  | 
5 |  | > 64 |  | > 64 |  | CC(C(O)c1ccc(Cl)cc1)n1cncn1 (centres unmarked) [(C), reference compound] | k.W. |  |  |  |  |  |  | 
6 | 16 (≈ 45.7 µM) | < 1 | 4 (≈ 11.4 µM) | < 1 | 2 (≈ 5.71 µM) | OC(Cn1cncn1)c1ccc(Oc2ccc(Cl)cc2Cl)cc1 (centres unmarked) [Beispiel 48] |  | bessere antimykotische Wirkung |  |  |  |  |  | 
7 |  |  |  |  |  | CCCCC(C(O)c1ccc(Oc2ccc(Cl)cc2)cc1)n1cncn1 (single isomer, unassigned) [Beispiel 34] |  | bessere antimykotische Wirkung |  | 32 | <1 | >64 | 32 | <1
8 | 16 (≈ 50.7 µM) | < 1 | 4 (≈ 12.7 µM) | < 1 | 16 (≈ 50.7 µM) | OC(Cn1cncn1)c1ccc(Oc2ccc(Cl)cc2)cc1 (centres unmarked) [Beispiel 49] |  | bessere antimykotische Wirkung |  |  |  |  |  | 
9 | < 1 | < 1 | 2 (≈ 5.64 µM) | < 1 | 2 (≈ 5.64 µM) | CC(C)C(C(=O)c1ccc(Oc2ccc(Cl)cc2)cc1)n1ccnc1 (centres unmarked) [Beispiel 28] |  | bessere antimykotische Wirkung |  |  |  |  |  | 
10 | 32 (≈ 87.9 µM) | < 1 | 16 (≈ 43.9 µM) | 4 (≈ 11 µM) | 8 (≈ 22 µM) | CC(C(O)c1ccc(Oc2ccc(Cl)cc2Cl)cc1)n1cncn1 (centres unmarked) [Beispiel 41] |  | bessere antimykotische Wirkung |  |  |  |  |  | 
11 | < 1 | < 1 | < 1 | < 1 | < 1 | CCCCC(C(=O)c1ccc(Oc2ccc(Cl)cc2)cc1)n1ccnc1 (centres unmarked) [Beispiel 27] |  | bessere antimykotische Wirkung |  |  |  |  |  | 
12 | 16 (≈ 48.7 µM) | < 1 |  | 8 (≈ 24.3 µM) | 2 (≈ 6.08 µM) | CC(C(O)c1ccc(Oc2ccc(Cl)cc2)cc1)n1ccnc1 (centres unmarked) [Beispiel 71] | +++ (Wirkung = 60 % Ueberlebende am 6.Tag p.i.) | bessere antimykotische Wirkung | bessere Wirkung |  |  |  |  | 
13 | 16 (≈ 42.8 µM) | < 1 | 16 (≈ 42.8 µM) | 4 (≈ 10.7 µM) | 4 (≈ 10.7 µM) | COCCC(C(O)c1ccc(Oc2ccc(Cl)cc2)cc1)n1cncn1 (centres unmarked) [Beispiel 39] |  | bessere antimykotische Wirkung |  |  |  |  |  | 
14 | 32 (≈ 86.5 µM) | < 1 | 4 (≈ 10.8 µM) | 4 (≈ 10.8 µM) | 2 (≈ 5.41 µM) | CC=CCC(C(O)c1ccc(Oc2ccc(Cl)cc2)cc1)n1cncn1 (centres unmarked) [Beispiel 37] |  | bessere antimykotische Wirkung |  |  |  |  |  | 
15 | 32 (≈ 86.3 µM) | < 1 | 8 (≈ 21.6 µM) | < 1 | 2 (≈ 5.39 µM) | CCCCC(C(O)c1ccc(Oc2ccc(Cl)cc2)cc1)n1ccnc1 (centres unmarked) [Beispiel 72] |  | bessere antimykotische Wirkung |  |  |  |  |  | 
16 | < 1 | < 1 | 8 (≈ 22.5 µM) | < 1 | < 1 | CCCC(C(=O)c1ccc(Oc2ccc(Cl)cc2)cc1)n1ccnc1 (centres unmarked) [Beispiel 25] |  | bessere antimykotische Wirkung |  |  |  |  |  | 
17 | 32 (≈ 83.4 µM) | 8 (≈ 20.8 µM) | 8 (≈ 20.8 µM) | < 1 | 64 (≈ 167 µM) | CCCC=CC(C(O)c1ccc(Oc2ccc(Cl)cc2)cc1)n1cncn1 (centres unmarked) [Beispiel 38] |  | bessere antimykotische Wirkung |  |  |  |  |  | 
18 | 16 (≈ 46.7 µM) | < 1 | 8 (≈ 23.3 µM) | 2 (≈ 5.83 µM) | < 1 | CCC(C(O)c1ccc(Oc2ccc(Cl)cc2)cc1)n1ccnc1 (centres unmarked) [Beispiel 70] | + | bessere antimykotische Wirkung | bessere Wirkung |  |  |  |  | 
19 | 32 (≈ 99.3 µM) | < 1 | 16 (≈ 49.6 µM) | 4 (≈ 12.4 µM) | 32 (≈ 99.3 µM) | CCCC(C(O)c1ccc(Oc2ccccc2)cc1)n1ccnc1 (centres unmarked) [Beispiel 68] |  | bessere antimykotische Wirkung |  |  |  |  |  | 
20 | 32 (≈ 93.6 µM) | 16 (≈ 46.8 µM) | 2 (≈ 5.85 µM) | 4 (≈ 11.7 µM) | 64 (≈ 187 µM) | CCC(C(=O)c1ccc(Oc2ccc(Cl)cc2)cc1)n1cncn1 (centres unmarked) [Beispiel 7] |  | bessere antimykotische Wirkung |  |  |  |  |  | 
21 | > 64 | < 1 | 8 (≈ 20.4 µM) | < 1 | < 1 | CCCC(C(O)c1ccc(Oc2ccc(Cl)cc2Cl)cc1)n1cncn1 (centres unmarked) [Beispiel 40] |  | bessere antimykotische Wirkung |  |  |  |  |  | 
22 | 64 (≈ 155 µM) | 4 (≈ 9.66 µM) | 32 (≈ 77.3 µM) | < 1 | 16 (≈ 38.7 µM) | CCCCCCCC(C(O)c1ccc(Oc2ccc(Cl)cc2)cc1)n1cncn1 (centres unmarked) [Beispiel 36] |  | bessere antimykotische Wirkung |  |  |  |  |  | 
23 | > 64 | < 1 | 32 (≈ 93.1 µM) | < 1 | > 64 | CC(n1cncn1)C(C)(O)c1ccc(Oc2ccc(Cl)cc2)cc1 (centres unmarked) [Beispiel 44] |  | bessere antimykotische Wirkung |  |  |  |  |  | 
24 | 64 (≈ 172 µM) | < 1 |  | < 1 |  | CCCCC(C(O)c1ccc(Oc2ccc(Cl)cc2)cc1)n1cncn1 (single isomer, unassigned) [Beispiel 33] | +++++ (sehr gute Wirkung = 90 % Ueberlebende am 6.Tag p.i.) | bessere antimykotische Wirkung | bessere Wirkung |  |  | <1 | 8 | 
25 | 8 (≈ 24.4 µM) | 8 (≈ 24.4 µM) | 4 (≈ 12.2 µM) | 2 (≈ 6.1 µM) | 16 (≈ 48.8 µM) | CC(C(=O)c1ccc(Oc2ccc(Cl)cc2)cc1)n1cncn1 (centres unmarked) [Beispiel 9] | +++ (Wirkung = 60 % Ueberlebende am 6.Tag p.i.) | bessere antimykotische Wirkung | bessere Wirkung |  |  |  |  | 
26 | 64 (≈ 179 µM) | < 1 | 8 (≈ 22.4 µM) | < 1 | < 1 | CCCC(C(O)c1ccc(Oc2ccc(Cl)cc2)cc1)n1ccnc1 (centres unmarked) [Beispiel 74] |  | bessere antimykotische Wirkung |  |  |  |  |  | 
27 | 8 (≈ 22.5 µM) | 64 (≈ 180 µM) | 8 (≈ 22.5 µM) | 4 (≈ 11.2 µM) |  | CC(C)C(C(=O)c1ccc(Oc2ccc(Cl)cc2)cc1)n1cncn1 (centres unmarked) [Beispiel 13] |  | bessere antimykotische Wirkung |  |  |  |  |  | 
28 | > 64 | > 64 | > 64 | 4 (≈ 15.2 µM) |  | O=C(Cn1cncn1)c1ccc(-c2ccccc2)cc1 [(B), reference compound] | k.W. |  |  |  |  |  |  | 
